# Key:
# gut bacteria = assay: Gut microbiome sequencing; assay type: in vivo; details: HFD 5-ASA-fed mice
# Experimental: We amplified the V4 hypervariable region of the 16S rRNA gene using a universal forward sequencing primer and a uniquely barcoded reverse sequencing primer to allow for multiplexing (Caporaso et al., 2012). Primers contained an adapter sequence to bind the amplicons to the Illumina flow cell. PCR-based library construction was performed in triplicate 25 μl solutions containing 1×KAP[…] Robust HotStart ReadyMix, 600 nM each of primer, and 1 μl of DNA template. For every PCR reaction sterile dH2O was used as a negative control to ensure no contaminating DNA was present. PCR conditions were 95° C. for 3 min, followed by 18 cycles of 95° C. for 15 s, 58° C. for 15 s, 72° C. for 15 s and were completed at 72° C. for 5 min. All PCR reactions were run on a 1% agarose gel to visualize the amplification and approximate DNA quantity. Individual barcoded samples from the triplicates were pooled by approximately even concentrations to create the final library. The final library was purified using 0.8 volumes of Agencourt AMPure XP beads (Beckman Coulter, Indianapolis, Ind.) according to the manufacturer's protocol and quantified using the Qubit Fluorometer. The final library was prepared according to the MiSeq user guide, diluted to a concentration of 7 pM and combined with a 5% PhiX control. Sequencing was performed using the V2 (150 bp×2) chemistry and sequenced on the Illumina MiSeq (Illumina, San Diego, Calif.).
# [1] = tested on: C57BL/6 mice on HFD with established metabolic disease; assay: Treatment of established obesity-associated IR (switch to HFD 5-ASA after 8 weeks HFD); assay type: in vivo; details: 8 weeks HFD then 8 weeks HFD 5-ASA (1500 mg/kg/day) vs HFD only
# Experimental: Mice. Mice were fed either NCD (15 kcal % fat) or HFD (Research Diets, 60 kcal % fat, irradiated) starting at 6 weeks of age. All studies were performed under the approval of Animal User Protocols by the Animal Care Committee at the University Health Network. Mice were maintained in a pathogen-free, temperature-controlled environment on a 12-hour light and dark cycle. All mice used in comparative studies were male, age-matched, and litter mates where possible. […] We confirmed T cell-specific floxing of the PPARγ gene in Lck-Cre+ PPARγfl/fl mice by qPCR with a minimum of at least 90% reduction in PPARγ expression. […] We measured body weights, GTTs, ITTs, serum insulin, and fat cell diameter as previously described (Winer et al., 2009a). All GTTs were performed with a 1.5 g/kg glucose i.p. injection unless indicated otherwise.
# [2] = tested on: VAT T cells and M1 macrophages; assay: Flow cytometry of VAT immune cells, HFD or HFD 5-ASA; assay type: in vivo, mice; details: HFD vs HFD 5-ASA 1500 mg/kg/day, 16 weeks
# Experimental: We isolated VAT-associated immune cells as previously described (Winer et al., 2009a).
# We stained single cell suspensions for 30 min on ice with commercial antibodies. Flow cytometry antibodies including CD45.2 (104), CD3 (145-2C11), CD4 (GK1.5), CD8 (53-6.7), CD25 (PC61), γδTcR (GL3), Foxp3 (150D), IL-17 (TC11-18H10.1), IFNγ XMG1.2), α4β7 (DATK32), CCR9 (CW-1.2), CD11b (M1/70), F4/80 (BM8), CD11c (N418), CD206 (C068C2), Gr-1 (RB6-8C5), IL-7Rα (A7R34), B220 (RA3-6B2), Thy1.2 (30-H12), NKp46 (29A1.4), and Sca-1 (D7) were purchased from Biolegend. Intracellular staining was performed using a Foxp3 staining buffer kit (eBioscience). We acquired data on a Fortessa flow cytometer (BD Biosciences) and analyzed it with FlowJo software (Tree Star). We gated ILCs as described (Kirchberger et al., 2013).
# PPARγ = target: T1, PPARγ (Mus musculus, UniProt P37238); assay: PPARγ activity assay in small bowel T cell nuclear extracts; assay type: in vivo; details: purified small bowel T cells, mice fed HFD 5-ASA vs control HFD
# T1 construct: from tissue; host or cells: purified small bowel T cells of HFD or HFD 5-ASA-fed mice (nuclear extracts)
# Source text: We measured PPARγ functional activity in T cell nuclear extracts using a PPARγ transcription factor binding assay following vendor's instructions (ThermoScientific and Cayman Chemical Company). This ELISA-based assay is precoated with dsDNA containing the peroxisome proliferator response element (PPRE). PPARγ in the isolated nuclear extracts bind to PPRE. As per vendor's recommendations, this assay is specific to PPARγ and not to other PPARs (i.e., α or δ).
# HFD-fed C57BL/6 mice = assay: Food intake and metabolic cage studies, HFD or HFD 5-ASA; assay type: in vivo; details: HFD vs HFD 5-ASA, 14 weeks
# Experimental: Mice. Mice were fed either NCD (15 kcal % fat) or HFD (Research Diets, 60 kcal % fat, irradiated) starting at 6 weeks of age. All studies were performed under the approval of Animal User Protocols by the Animal Care Committee at the University Health Network. Mice were maintained in a pathogen-free, temperature-controlled environment on a 12-hour light and dark cycle. All mice used in comparative studies were male, age-matched, and litter mates where possible. […] We confirmed T cell-specific floxing of the PPARγ gene in Lck-Cre+ PPARγfl/fl mice by qPCR with a minimum of at least 90% reduction in PPARγ expression. […] We placed mice in automated metabolic cages (Oxymax Systems, Columbus Instruments) for 48 hours with airflow held constant at 0.5 L/min. (Revelo et al., 2014). […] We measured metabolic activity using indirect calorimetry, recording maximal O2 consumption (VO2), CO2 production (VCO2), and heat production normalized to body weight. Respiratory exchange ratio (RER) was calculated as […]. The data shown are calculated for light and dark measurements as an average over 24 hours by combining light and dark measurements. Ambulatory activity was measured by the breaking of infrared laser beams in the XY plane.
# T1 sequence (P37238 whole entry): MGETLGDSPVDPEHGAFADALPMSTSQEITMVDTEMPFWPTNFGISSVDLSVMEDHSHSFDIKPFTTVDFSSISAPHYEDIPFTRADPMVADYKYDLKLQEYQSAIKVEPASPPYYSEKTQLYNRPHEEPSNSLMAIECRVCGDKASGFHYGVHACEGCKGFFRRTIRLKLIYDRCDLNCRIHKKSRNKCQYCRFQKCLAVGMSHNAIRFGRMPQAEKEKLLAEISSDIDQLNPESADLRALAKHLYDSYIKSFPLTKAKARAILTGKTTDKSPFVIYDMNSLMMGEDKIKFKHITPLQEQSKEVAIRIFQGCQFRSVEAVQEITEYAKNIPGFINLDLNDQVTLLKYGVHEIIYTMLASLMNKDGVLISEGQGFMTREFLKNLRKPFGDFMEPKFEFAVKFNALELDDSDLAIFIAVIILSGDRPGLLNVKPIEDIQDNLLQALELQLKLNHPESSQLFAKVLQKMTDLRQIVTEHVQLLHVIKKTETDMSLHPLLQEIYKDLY
smiles,measurement,setting,value
"Nc1ccc(O)c(C(=O)O)c1 [5-ASA, 5-aminosalicylic acid]",Clostridiales,gut bacteria,increased
same,Firmicutes,gut bacteria,increased
same,abundance of Ruminococcaceae,gut bacteria,increased
same,bacterial diversity,gut bacteria,increased
same,body weight,[1],did not change
same,glucose tolerance,[1],significant improvements
same,insulin tolerance,[1],significant improvements
same,Tregs in VAT,[2],increasing
same,percentages of IFNγ-secreting CD8+ T cells in VAT,[2],reducing
same,percentages of M1 inflammatory macrophages in VAT,[2],reducing
same,percentages of Th1 cells in VAT,[2],reducing
same,PPARγ functional activity,PPARγ,increased
same,carbon dioxide output,HFD-fed C57BL/6 mice,no difference
same,food intake,HFD-fed C57BL/6 mice,no difference
same,oxygen consumption,HFD-fed C57BL/6 mice,no difference

# Source: US20180193361A1, “GUT ANTI-INFLAMMATORY AGENTS FOR REGULATION OF HIGH BLOOD GLUCOSE LEVELS” (UNIVERSITY HEALTH NETWORK, priority 2015, published 2018)
